Measured values reported in ChEMBL document CHEMBL1131451, “Structural and functional analyses of benzamidine-based inhibitors in complex with trypsin: implications for the inhibition of factor Xa, tPA, and urokinase” (J Med Chem, 1998).

Legend:
[1] = biological target: Urokinase-type plasminogen activator (Homo sapiens, UniProt P00749); assay: Inhibitory activity against human urokinase plasminogen activator expressed as dissociation constant
Prothrombin = Prothrombin (Bos taurus, UniProt P00735); assay: Inhibitory activity against bovine thrombin expressed as dissociation constant
Coagulation factor X = Coagulation factor X (Bos taurus, UniProt P00743); assay: Inhibitory activity against bovine coagulation factor X expressed as dissociation constant
Chain of Coagulation factor X (P00743 41-180 limits assumed): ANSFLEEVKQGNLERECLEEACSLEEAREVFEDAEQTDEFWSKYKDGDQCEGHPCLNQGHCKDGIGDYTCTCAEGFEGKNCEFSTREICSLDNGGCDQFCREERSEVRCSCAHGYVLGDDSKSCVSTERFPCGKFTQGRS
Chain of Coagulation factor X (P00743 234-492 limits assumed): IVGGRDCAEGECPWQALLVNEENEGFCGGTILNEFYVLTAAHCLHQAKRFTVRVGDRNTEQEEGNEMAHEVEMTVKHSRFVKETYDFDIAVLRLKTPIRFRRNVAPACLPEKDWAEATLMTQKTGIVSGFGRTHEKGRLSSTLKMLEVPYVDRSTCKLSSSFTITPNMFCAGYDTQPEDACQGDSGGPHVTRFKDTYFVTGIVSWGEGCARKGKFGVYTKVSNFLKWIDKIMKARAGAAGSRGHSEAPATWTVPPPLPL

Serine protease 1 = biological target: T1, Serine protease 1 (Bos taurus, UniProt P00760); assay: Inhibitory activity against bovine trypsin expressed as dissociation constant
T1 sequence (P00760 whole entry): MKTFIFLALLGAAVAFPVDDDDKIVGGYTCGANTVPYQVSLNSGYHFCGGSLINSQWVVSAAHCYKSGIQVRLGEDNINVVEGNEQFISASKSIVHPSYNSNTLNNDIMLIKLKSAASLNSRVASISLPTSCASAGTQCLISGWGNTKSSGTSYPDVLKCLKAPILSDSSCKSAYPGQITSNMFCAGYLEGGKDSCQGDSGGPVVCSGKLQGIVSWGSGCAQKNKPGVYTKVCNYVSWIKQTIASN

[2] = biological target: Tissue-type plasminogen activator (Homo sapiens, UniProt P00750); assay: Inhibitory activity against human tissue-type plasminogen activator expressed as dissociation constant
Chain of Tissue-type plasminogen activator (P00750 whole entry): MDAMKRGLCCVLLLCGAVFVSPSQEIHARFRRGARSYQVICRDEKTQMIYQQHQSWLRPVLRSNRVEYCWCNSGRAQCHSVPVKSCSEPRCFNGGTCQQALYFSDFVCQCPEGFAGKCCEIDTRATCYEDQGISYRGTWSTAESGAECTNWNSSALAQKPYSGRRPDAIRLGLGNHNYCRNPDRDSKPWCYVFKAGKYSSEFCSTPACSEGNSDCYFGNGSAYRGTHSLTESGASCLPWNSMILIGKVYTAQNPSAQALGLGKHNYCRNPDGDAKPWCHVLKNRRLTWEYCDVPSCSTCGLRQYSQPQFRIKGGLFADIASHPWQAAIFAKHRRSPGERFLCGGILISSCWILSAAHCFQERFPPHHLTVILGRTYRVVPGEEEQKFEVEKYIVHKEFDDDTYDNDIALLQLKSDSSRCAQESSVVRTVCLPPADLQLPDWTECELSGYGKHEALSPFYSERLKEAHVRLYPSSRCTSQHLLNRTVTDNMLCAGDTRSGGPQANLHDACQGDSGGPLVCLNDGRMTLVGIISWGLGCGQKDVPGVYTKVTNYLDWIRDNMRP

Row | Ki [1] [µM] | Ki (Prothrombin) [µM] | Ki (Coagulation factor X) [µM] | Ki (Serine protease 1) [µM] | Ki [2] [µM] | SMILES
1 | 38 |  |  |  |  | N=C(N)c1cccc(CC(NS(=O)(=O)c2ccc3ccccc3c2)C(=O)N2CCCCC2)c1 (configuration not stated)
2 | 41 |  |  |  |  | N=C(N)c1cccc(CC(NS(=O)(=O)c2ccc3ccccc3c2)C(=O)N2CCN(c3ccccc3)CC2)c1 (configuration not stated)
3 | 2 | 0.075 | 2 |  |  | CC1CCN(C(=O)C(Cc2cccc(C(=N)N)c2)NS(=O)(=O)c2c(C(C)C)cc(C(C)C)cc2C(C)C)CC1 (configuration not stated)
4 | 1.4 | 1.1 | 2.7 | 0.2 | 0.95 | CC(C)c1cc(C(C)C)c(S(=O)(=O)NC(Cc2cccc(C(N)N)c2)C(=O)N2CCN(C(=O)OCc3ccccc3)CC2)c(C(C)C)c1 (configuration not stated)
5 | 1.6 | 1.8 | 2.5 | 0.46 | 0.98 | CC(C)c1cc(C(C)C)c(S(=O)(=O)NC(Cc2cccc(C(N)N)c2)C(=O)N2CCCC(C(=O)NCc3ccccc3)C2)c(C(C)C)c1 (configuration not stated)
6 | 48 |  |  |  |  | N=C(N)c1cccc(CC(NS(=O)(=O)c2ccc3ccccc3c2)C(=O)N2CCNCC2)c1 (configuration not stated)
7 | > 1000 | 9.6 | 3 | 9.2 | 69 | CNC(=O)C(Cc1cccc(C(N)N)c1)NC(=O)CNS(=O)(=O)c1ccc2ccccc2c1 (configuration not stated)
8 | > 1000 | 0.006 |  |  | 70 | NC(N)c1ccc(CC(NC(=O)CNS(=O)(=O)c2ccc3ccccc3c2)C(=O)N2CCCCC2)cc1 (configuration not stated)
9 | 55 | 0.34 | 15 |  | 120 | Cc1ccc(S(=O)(=O)NC(Cc2cccc(C(N)N)c2)C(=O)N2CCCCC2)cc1 (configuration not stated)
10 | 34 |  | 42 |  |  | CC1CCN(C(=O)C(Cc2cccc(C(=N)N)c2)NS(=O)(=O)c2cccc3ccccc23)CC1 (configuration not stated)
11 | 0.41 | 0.49 | 1.7 | 0.037 | 0.57 | CCOC(=O)N1CCN(C(=O)C(Cc2cccc(C(N)N)c2)NS(=O)(=O)c2c(C(C)C)cc(C(C)C)cc2C(C)C)CC1 (configuration not stated)
12 | 40 |  | 2.3 |  |  | CC1CCN(C(=O)C(Cc2cccc(C(=N)N)c2)NS(=O)(=O)c2ccc3c(c2)C(=O)c2ccccc2C3=O)CC1 (configuration not stated)
13 | 4.5 | 0.22 | 18 | 0.0084 | 24 | CCOC(=O)C1CCN(C(=O)C(Cc2cccc(C(=N)N)c2)NS(=O)(=O)c2ccc3ccccc3c2)CC1 (configuration not stated)
14 | 49 | 1.2 | 0.24 | 3.7 | 33 | CC(C)OC(=O)C(Cc1cccc(C(N)N)c1)NC(=O)CNS(=O)(=O)c1ccc2ccccc2c1 (configuration not stated)

Second part, the compound before the results:

Row | SMILES | Ki [1] [µM] | Ki (Prothrombin) [µM] | Ki (Coagulation factor X) [µM] | Ki (Serine protease 1) [µM] | Ki [2] [µM]
15 | CC1CCN(C(=O)C(Cc2cccc(C(=N)N)c2)NC(=O)OC(C)(C)C)CC1 (configuration not stated) | 56 |  | 64 |  | 
16 | COC(=O)C1CCCN(C(=O)C(Cc2cccc(C(=N)N)c2)NS(=O)(=O)c2ccc3ccccc3c2)C1 (configuration not stated) | 26 | 0.15 | 18 |  | 
17 | COC(=O)C(Cc1cccc(C(N)N)c1)NC(=O)CNS(=O)(=O)c1ccc(C)cc1 (configuration not stated) | 78 | 3.9 |  | 5.7 | 23
18 | CC1CCCN(C(=O)C(Cc2cccc(C(=N)N)c2)NS(=O)(=O)c2ccc3ccccc3c2)C1 (configuration not stated) | 35 | 0.13 | 32 | 0.53 | 
19 | COC(=O)C1CCN(C(=O)C(Cc2cccc(C(=N)N)c2)NS(=O)(=O)c2ccc3ccccc3c2)CC1 (configuration not stated) | 9.3 | 0.017 | 43 |  | 
20 | NC(N)c1ccc(/C=C2\CCCC/C(=C\c3ccc(C(N)N)cc3)C2=O)cc1 | 3.4 | 0.32 | 0.013 | 0.09 | 0.035
21 | CC1CCN(C(=O)C(N)Cc2cccc(C(=N)N)c2)CC1 (configuration not stated) | 800 |  | 230 |  | 
22 | Cc1cc(C)c(S(=O)(=O)NC(Cc2cccc(C(=N)N)c2)C(=O)N2CCC(C)CC2)c(C)c1 (configuration not stated) | 16 |  | 95 |  | 
23 | Cc1ccc(S(=O)(=O)NC(Cc2cccc(C(=N)N)c2)C(=O)N2CCC(C)CC2)cc1 (configuration not stated) | 25 |  | 71 |  | 
24 | CC1CCN(C(=O)C(Cc2cccc(C(=N)N)c2)NS(=O)(=O)c2ccc3ccccc3c2)CC1 (configuration not stated) | 31 |  |  |  | 
25 | N=C(N)c1ccccc1 [BENZAMIDINE] |  | 890 | 160 |  | 
